# Measurements as given in patent publication US7604947B2, “Detection and modulation of cancer stem cells” (Cornell Research Foundation, Inc., priority 2004, dated 2009).
# “Also recorded” adds a separate entry of the source.
# Legend:
# human REX-1 protein [1] = assay: Western blot of human REX-1 protein after retinoic acid treatment, HEKa cells; format: cell-based; conditions: RA 1 μM for 48 hours
# Source text: (§1) The following human carcinoma and leukemia cell lines were maintained as directed by the ATCC: breast cancer cells: MCF-7, MDA-MB-231, MDA-MB-453, MDA-MB-468, SK-BR3 and HS578T; prostate cancer cells: LnCAP; skin cancer cells: SCC-12, SCC-13; kidney cancer cells: SK-39; bladder cancer cells: HTB1, HT1376, HTB9; oral cavity (head and neck) cancer: SCC-4, SCC-9, SCC-25, SCC-15; leukemia cells: HL-60, NB4 and NTERA2 teratocarcinoma cells. Normal human mammary (HMEC); renal proximal tubule epithelial cells (RPTE); prostate epithelial cells (PrEC), keratinocytes (NHEK) and lung (NHBE, SAEC) epithelial cells were grown as directed by the supplier (Cambrex, Walkersville, Md.). Normal human keratinocytes were also purchased from Cascade Biologics (Portland, Oreg.) and cultured as directed. Non-tumorous bladder cancer samples were provided by Dr. Stephen Boorjian (Weill Medical College, Cornell University, NY, N.Y.) and are as described in Boorjian, S, Tickoo, S K, Mongan, N P et al. Reduced Lecithin:Retinol Acyltransferase (LRAT) Expression Correlates with Increased Pathologic Tumor Stage in Bladder Cancer. Clinical Cancer Research 2004; 10:In press. Normal and All-trans-retinoic acid (RA) (Sigma, St. Louis, Mo.) was dissolved in ethanol and used at a final concentration of 20 nM or 1 μM as indicated in the descriptions of the figures. […]
# hRex1 = assay: RT-PCR of hRex1 expression after retinoic acid treatment; format: cell-based, human; conditions: MDA-MB-468 cells
# human REX-1 protein [2] = assay: Western blot of human REX-1 protein after retinoic acid treatment, MDA-MB-468 cells; format: cell-based; conditions: RA 1 μM for 48 hours
# Source text: as §1
# [3] = tested on: polyclonal rabbit anti-human REX-1 antibody; assay: Immunohistochemistry peptide competition of anti-REX-1 antibody staining in normal renal parenchyma; format: binding; conditions: 1 μg/mL free peptide, normal renal parenchyma sections
# Method: Paraffin-embedded sections. Five micron tissue sections were cut from the patient blocks, and the sections were deparaffinized in Histoclear™(National Diagnostics, Atlanta, Ga.) followed by rehydration in a graded series of ethanol. Antigen retrieval was performed by heat with the Antigen Unmasking Solution (Vector Laboratories, Burlingame, Calif.) in a pressure cooker for 8 minutes. A 3% solution of H2O2 was used to quench the endogenous peroxidase activity (15 minute incubation). […] This was followed by incubation with the affinity-purified, polyclonal rabbit antihuman REX-1 primary antibody diluted 1:5 in 1.5% goat serum for 45-60 min. at room temperature, and then with 100 μL of horseradish peroxidase (HRP) conjugated goat anti-rabbit secondary antibody (SuperPicture, Zymed, San Francisco, Calif.) for 30 minutes at room temperature. Color was developed with the 3,3′-diaminobenzidine chromogen substrate, followed by counterstaining with hematoxylin (Vector). The negative control normal and tumor sections were treated identically to all other sections, with the exception that 1.5% normal goat serum was used in place of the primary antibody. […] All samples were analyzed using this identical protocol with the same reagents. The staining procedures were repeated at least three times with similar results.
Molecule,level of human REX-1 protein following RA treatment (human REX-1 protein [1]),expression of hRex1 following RA treatment (hRex1),expression of hRex1 following RA treatment (hRex1; listed as retinoic acid),level of human REX-1 protein following RA treatment (human REX-1 protein [2]),REX-1 antibody staining in presence of free peptide [3]
"CC1=C(/C=C/C(C)=C/C=C/C(C)=C/C(=O)O)C(C)(C)CCC1 [RA, All-trans-retinoic acid]",did not alter; also recorded: unaltered,not reduced,does not decrease,did not alter; also recorded: unaltered,
SNNLKAHILTHANTNKNEQEGK (listed as Homo sapiens) [free human REX-1 peptide],,,,,staining was eliminated
